Measurements published in US10301280B2 (Plexxikon Inc., priority 2012, dated 2019).

Experiments:
c-kit kinase = c-kit kinase (Homo sapiens (Human), UniProt P10721); assay: c-Kit biochemical assay (AlphaScreen); settings: c-kit biochemical inhibitory activity
Summary of the method: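 AlphaScreen of biotin-(E4Y)3 (100 nM) phosphorylation by c-kit (0.1 ng) in HEPES pH 7.2, Mg/Mn, 10 μM ATP, 5% DMSO, 1 h at room temperature; variant uses 100 μM ATP, 30 nM biotin-(E4Y)10, 1 ng enzyme. PY20 acceptor/streptavidin donor signal versus 8-point concentration gives IC50.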

[1] = test system: BaF3-FL KIT D816V or BaF3-FL KIT V560G/D816V cell line; assay: Cell-based assays of c-Kit mutant kinase activity (cell growth, ATPlite); settings: at least one of the c-kit cell assays of Example 26
Summary of the method: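 IC50 derived from ATP-content luminescence (ATPlite) after three-day compound exposure at 37° C., 5% CO2. Cells: BaF3 rendered growth-dependent on full-length human KIT D816V or V560G/D816V, 1×10^4 per well, RPMI plus 10% FBS; 8 points, 1:3 steps, maximum 10 μM final, 0.2% DMSO.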

Chain of c-kit kinase (P10721 26-976): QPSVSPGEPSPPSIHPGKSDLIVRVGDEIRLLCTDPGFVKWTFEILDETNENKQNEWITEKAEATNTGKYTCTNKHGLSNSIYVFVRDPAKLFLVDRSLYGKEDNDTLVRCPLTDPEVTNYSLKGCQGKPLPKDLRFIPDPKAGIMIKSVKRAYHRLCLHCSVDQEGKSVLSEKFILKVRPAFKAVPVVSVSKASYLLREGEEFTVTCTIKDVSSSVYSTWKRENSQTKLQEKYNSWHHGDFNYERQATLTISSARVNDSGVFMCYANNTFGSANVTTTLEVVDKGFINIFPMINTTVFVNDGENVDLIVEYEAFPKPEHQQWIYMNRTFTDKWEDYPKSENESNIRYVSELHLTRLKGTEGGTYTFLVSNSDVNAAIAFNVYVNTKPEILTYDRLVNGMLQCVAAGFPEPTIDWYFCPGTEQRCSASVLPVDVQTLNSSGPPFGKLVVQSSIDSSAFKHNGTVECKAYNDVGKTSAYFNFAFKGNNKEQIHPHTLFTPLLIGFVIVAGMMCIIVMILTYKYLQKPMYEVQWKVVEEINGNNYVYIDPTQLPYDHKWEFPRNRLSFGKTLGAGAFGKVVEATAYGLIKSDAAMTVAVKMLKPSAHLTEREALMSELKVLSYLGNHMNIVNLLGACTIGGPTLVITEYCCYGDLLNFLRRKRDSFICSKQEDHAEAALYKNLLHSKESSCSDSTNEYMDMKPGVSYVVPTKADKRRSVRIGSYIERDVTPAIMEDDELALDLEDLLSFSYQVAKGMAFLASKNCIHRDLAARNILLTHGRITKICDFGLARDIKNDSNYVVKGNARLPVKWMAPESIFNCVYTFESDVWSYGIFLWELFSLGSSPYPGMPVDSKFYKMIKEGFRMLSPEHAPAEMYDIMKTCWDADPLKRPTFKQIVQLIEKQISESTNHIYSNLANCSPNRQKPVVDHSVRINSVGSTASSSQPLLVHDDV

## Cc1n[nH]c(C(=O)Nc2cnc3[nH]c(-c4ccccc4C(F)(F)F)cc3c2)c1C [P-2180, 3,4-dimethyl-N-[2-[2-(trifluoromethyl)phenyl]-1H-pyrrolo[2,3-b]pyridin-5-yl]-1H-pyrazole-5-carboxamide]
c-kit kinase
  IC50: 1 to 10 µM
[1]
  IC50: < 10 µM

## Cc1ccc(-c2cc3cc(NC(=O)c4[nH]nc(C)c4C)cnc3[nH]2)c(C)c1 [P-2181, N-[2-(2,4-dimethylphenyl)-1H-pyrrolo[2,3-b]pyridin-5-yl]-3,4-dimethyl-1H-pyrazole-5-carboxamide]
c-kit kinase
  IC50: 10 to 200 µM
[1]
  IC50: < 10 µM

## Cc1n[nH]c(C(=O)Nc2cnc3[nH]c(-c4ccccc4OC(F)(F)F)cc3c2)c1C [P-2182, 3,4-dimethyl-N-[2-[2-(trifluoromethoxy)phenyl]-1H-pyrrolo[2,3-b]pyridin-5-yl]-1H-pyrazole-5-carboxamide]
c-kit kinase
  IC50: 1 to 10 µM
[1]
  IC50: < 10 µM

## COc1cncc(-c2cc3cc(NC(=O)c4[nH]nc(C)c4C)cnc3[nH]2)c1 [P-2183, N-[2-(5-methoxy-3-pyridyl)-1H-pyrrolo[2,3-b]pyridin-5-yl]-3,4-dimethyl-1H-pyrazole-5-carboxamide]
c-kit kinase
  IC50: 10 to 200 µM
[1]
  IC50: < 10 µM

## Cc1cncc(-c2cc3cc(NC(=O)c4[nH]nc(C)c4C)cnc3[nH]2)c1 [P-2184, 3,4-dimethyl-N-[2-(5-methyl-3-pyridyl)-1H-pyrrolo[2,3-b]pyridin-5-yl]-1H-pyrazole-5-carboxamide]
c-kit kinase
  IC50: 1 to 10 µM
[1]
  IC50: < 10 µM

## Cc1n[nH]c(C(=O)Nc2cnc3[nH]c(-c4ccnc(N5CCN(S(C)(=O)=O)CC5)c4)cc3c2)c1C [P-2186, 3,4-dimethyl-N-[2-[2-(4-methylsulfonylpiperazin-1-yl)-4-pyridyl]-1H-pyrrolo[2,3-b]pyridin-5-yl]-1H-pyrazole-5-carboxamide]
c-kit kinase
  IC50: 1 to 10 µM
[1]
  IC50: < 10 µM

## Cc1n[nH]c(C(=O)Nc2cnc3[nH]c(-c4ccnc(N5CCN(C(=O)C6CC6)CC5)c4)cc3c2)c1C [P-2187, N-[2-[2-[4-(cyclopropanecarbonyl)piperazin-1-yl]-4-pyridyl]-1H-pyrrolo[2,3-b]pyridin-5-yl]-3,4-dimethyl-1H-pyrazole-5-carboxamide]
c-kit kinase
  IC50: 1 to 10 µM
[1]
  IC50: < 10 µM

## Cc1n[nH]c(C(=O)Nc2cnc3[nH]c(-c4ccnc(N5CCN(C(=O)CC#N)CC5)c4)cc3c2)c1C [P-2189, N-[2-[2-[4-(2-cyanoacetyl)piperazin-1-yl]-4-pyridyl]-1H-pyrrolo[2,3-b]pyridin-5-yl]-3,4-dimethyl-1H-pyrazole-5-carboxamide]
c-kit kinase
  IC50: 0.0001 to 1 µM
[1]
  IC50: < 10 µM

## Cc1n[nH]c(C(=O)Nc2cnc3[nH]c(-c4ccc(F)cc4OC(F)F)cc3c2)c1C [P-2268, N-[2-[2-(difluoromethoxy)-4-fluoro-phenyl]-1H-pyrrolo[2,3-b]pyridin-5-yl]-3,4-dimethyl-1H-pyrazole-5-carboxamide]
c-kit kinase
  IC50: 1 to 10 µM
[1]
  IC50: < 10 µM

## Cc1n[nH]c(C(=O)Nc2cnc3[nH]c(-c4cncc(C#N)c4)cc3c2)c1C [P-2270, N-[2-(5-cyano-3-pyridyl)-1H-pyrrolo[2,3-b]pyridin-5-yl]-3,4-dimethyl-1H-pyrazole-5-carboxamide]
c-kit kinase
  IC50: 10 to 200 µM
[1]
  IC50: < 10 µM

## Cc1n[nH]c(C(=O)Nc2cnc3[nH]c(C4=CCOCC4)cc3c2)c1C [P-2271, N-[2-(3,6-dihydro-2H-pyran-4-yl)-1H-pyrrolo[2,3-b]pyridin-5-yl]-3,4-dimethyl-1H-pyrazole-5-carboxamide]
c-kit kinase
  IC50: 0.0001 to 1 µM
[1]
  IC50: < 10 µM

## Cc1n[nH]c(C(=O)Nc2cnc3[nH]c(-c4cnccc4C(N)=O)cc3c2)c1C [P-2272, 3-[5-[(3,4-dimethyl-1H-pyrazole-5-carbonyl)amino]-1H-pyrrolo[2,3-b]pyridin-2-yl]pyridine-4-carboxamide]
c-kit kinase
  IC50: 10 to 200 µM
[1]
  IC50: < 10 µM

## Cc1n[nH]c(C(=O)Nc2cnc3[nH]c(-c4cccc5c4OCC5)cc3c2)c1C [P-2273, N-[2-(2,3-dihydrobenzofuran-7-yl)-1H-pyrrolo[2,3-b]pyridin-5-yl]-3,4-dimethyl-H-pyrazole-5-carboxamide]
c-kit kinase
  IC50: 10 to 200 µM
[1]
  IC50: < 10 µM

## Cc1n[nH]c(C(=O)Nc2cnc3[nH]c(-c4cccc(N5CCNCC5)c4)cc3c2)c1C [P-2274, 3,4-dimethyl-N-[2-(3-piperazin-1-ylphenyl)-1H-pyrrolo[2,3-b]pyridin-5-yl]-1H-pyrazole-5-carboxamide]
c-kit kinase
  IC50: 0.0001 to 1 µM
[1]
  IC50: < 10 µM

## Cc1cc(Cl)ccc1-c1cc2cc(NC(=O)c3[nH]nc(C)c3C)cnc2[nH]1 [P-2277, N-[2-(4-chloro-2-methyl-phenyl)-1H-pyrrolo[2,3-b]pyridin-5-yl]-3,4-dimethyl-1H-pyrazole-5-carboxamide]
c-kit kinase
  IC50: 10 to 200 µM
[1]
  IC50: < 10 µM

## Cc1n[nH]c(C(=O)Nc2cnc3[nH]c(-c4ccncc4Cl)cc3c2)c1C [P-2278, N-[2-(3-chloro-4-pyridyl)-H-pyrrolo[2,3-b]pyridin-5-yl]-3,4-dimethyl-1H-pyrazole-5-carboxamide]
c-kit kinase
  IC50: 10 to 200 µM
[1]
  IC50: < 10 µM

## Cc1n[nH]c(C(=O)Nc2cnc3[nH]c(-c4ccc(F)nc4F)cc3c2)c1C [P-2280, N-[2-(2,6-difluoro-3-pyridyl)-1H-pyrrolo[2,3-b]pyridin-5-yl]-3,4-dimethyl-1H-pyrazole-5-carboxamide]
c-kit kinase
  IC50: 10 to 200 µM
[1]
  IC50: < 10 µM

## Cc1n[nH]c(C(=O)Nc2cnc3[nH]c(-c4cccc5c4OC(F)(F)O5)cc3c2)c1C [P-2281, N-[2-(2,2-difluoro-1,3-benzodioxol-4-yl)-1H-pyrrolo[2,3-b]pyridin-5-yl]-3,4-dimethyl-1H-pyrazole-5-carboxamide]
c-kit kinase
  IC50: 10 to 200 µM
[1]
  IC50: < 10 µM

## Cc1cc(-c2cc3cc(NC(=O)c4[nH]nc(C)c4C)cnc3[nH]2)cnc1C [P-2282, N-[2-(5,6-dimethyl-3-pyridyl)-1H-pyrrolo[2,3-b]pyridin-5-yl]-3,4-dimethyl-1H-pyrazole-5-carboxamide]
c-kit kinase
  IC50: 1 to 10 µM
[1]
  IC50: < 10 µM

## COc1ccc(-c2cc3cc(NC(=O)c4[nH]nc(C)c4C)cnc3[nH]2)c(C)c1C [P-2284, N-[2-(4-methoxy-2,3-dimethyl-phenyl)-1H-pyrrolo[2,3-b]pyridin-5-yl]-3,4-dimethyl-1H-pyrazole-5-carboxamide]
c-kit kinase
  IC50: 1 to 10 µM
[1]
  IC50: < 10 µM

## Cc1nn(C2CN(C(=O)OC(C)(C)C)C2)cc1-c1cc2cc(NC(=O)c3[nH]nc(C)c3C)cnc2[nH]1 [P-2285, tert-butyl 3-[4-[5-[(3,4-dimethyl-1H-pyrazole-5-carbonyl)amino]-1H-pyrrolo[2,3-b]pyridin-2-yl]-3-methyl-pyrazol-1-yl]azetidine-1-carboxylate]
c-kit kinase
  IC50: 0.0001 to 1 µM
[1]
  IC50: < 10 µM

## Cc1nn(C2CNC2)cc1-c1cc2cc(NC(=O)c3[nH]nc(C)c3C)cnc2[nH]1 [P-2286, N-[2-[1-(azetidin-3-yl)-3-methyl-pyrazol-4-yl]-1H-pyrrolo[2,3-b]pyridin-5-yl]-3,4-dimethyl-1H-pyrazole-5-carboxamide]
c-kit kinase
  IC50: 0.0001 to 1 µM
[1]
  IC50: < 10 µM

## O=C(Nc1cnc2[nH]c(-c3ccccc3)cc2c1)c1cccc2n[nH]cc12 [P-2289, N-(2-phenyl-1H-pyrrolo[2,3-b]pyridin-5-yl)-2H-indazole-4-carboxamide]
c-kit kinase
  IC50: 0.0001 to 1 µM
[1]
  IC50: < 10 µM

## COC(=O)c1cccc(C(=O)Nc2cnc3[nH]c(-c4ccccc4)cc3c2)c1 [P-2290, methyl 3-[(2-phenyl-1H-pyrrolo[2,3-b]pyridin-5-yl)carbamoyl]benzoate]
c-kit kinase
  IC50: 10 to 200 µM
[1]
  IC50: < 10 µM

## O=C(O)c1cccc(C(=O)Nc2cnc3[nH]c(-c4ccccc4)cc3c2)c1 [P-2291, 3-[(2-phenyl-1H-pyrrolo[2,3-b]pyridin-5-yl)carbamoyl]benzoic acid]
c-kit kinase
  IC50: 10 to 200 µM
[1]
  IC50: < 10 µM

## Cc1n[nH]c(C(=O)Nc2cnc3[nH]c(-c4ccc(C(=O)O)c(F)c4)cc3c2)c1C [P-2292, 4-[5-[(3,4-dimethyl-1H-pyrazole-5-carbonyl)amino]-1H-pyrrolo[2,3-b]pyridin-2-yl]-2-fluoro-benzoic acid]
c-kit kinase
  IC50: 0.0001 to 1 µM
[1]
  IC50: < 10 µM

## Cc1n[nH]c(C(=O)Nc2cnc3[nH]c(-c4cccc(CC(=O)O)c4)cc3c2)c1C [P-2293, 2-[3-[5-[(3,4-dimethyl-1H-pyrazole-5-carbonyl)amino]-1H-pyrrolo[2,3-b]pyridin-2-yl]phenyl]acetic acid]
c-kit kinase
  IC50: 0.0001 to 1 µM
[1]
  IC50: < 10 µM

## Cc1n[nH]c(C(=O)Nc2cnc3[nH]c(-c4ccc(C5(C(=O)O)CC5)cc4)cc3c2)c1C [P-2294, 1-[4-[5-[(3,4-dimethyl-1H-pyrazole-5-carbonyl)amino]-1H-pyrrolo[2,3-b]pyridin-2-yl]phenyl]cyclopropanecarboxylic acid]
c-kit kinase
  IC50: 0.0001 to 1 µM
[1]
  IC50: < 10 µM

## Cc1n[nH]c(C(=O)Nc2cnc3[nH]c(-c4ccc(CC(=O)O)cc4)cc3c2)c1C [P-2295, 2-[4-[5-[(3,4-dimethyl-1H-pyrazole-5-carbonyl)amino]-1H-pyrrolo[2,3-b]pyridin-2-yl]phenyl]acetic acid]
c-kit kinase
  IC50: 0.0001 to 1 µM
[1]
  IC50: < 10 µM

## Cc1cc(-c2cc3cc(NC(=O)c4[nH]nc(C)c4C)cnc3[nH]2)ccc1C(=O)O [P-2296, 4-[5-[(3,4-dimethyl-1H-pyrazole-5-carbonyl)amino]-1H-pyrrolo[2,3-b]pyridin-2-yl]-2-methyl-benzoic acid]
c-kit kinase
  IC50: 0.0001 to 1 µM
[1]
  IC50: < 10 µM

## Cc1n[nH]c(C(=O)Nc2cnc3[nH]c(-c4cccc(C(=O)O)c4C)cc3c2)c1C [P-2297, 3-[5-[(3,4-dimethyl-1H-pyrazole-5-carbonyl)amino]-1H-pyrrolo[2,3-b]pyridin-2-yl]-2-methyl-benzoic acid]
c-kit kinase
  IC50: 0.0001 to 1 µM
[1]
  IC50: < 10 µM
